Measurements reported in US20240398785A1, “SMALL MOLECULE DRUGS FOR THE INDUCTION OF TRAINED IMMUNITY” (THE UNIVERSITY OF CHICAGO, priority 2023, published 2024).

Assays:
Format in all cases: cell-based, mouse
[1] = tested on: BMDMs; experiment: A1155463 immunogenicity, BMDM supernatant after 24 hours; settings: no challenge
Procedure: FIG. 7: Testing immunogenicity of A115463 on BMDMs: BMDMs (100,000 cells per well) were incubated with PBS (red), different doses of A1155463 (blue 10 uM, green 1 uM or purple 0.1 uM) or different concentrations of DMSO, reflective of the A1155463 doses for 24 h.
Bcl-xL is an anti-apoptotic protein with some role in mediating inflammatory reactions.^32,33 Most documented inducers of trained immunity elicit an initial immune response upon administration. However, A1155463 has never been reported elicit inflammatory responses in vitro. To test if A1155463 elicited an enhanced innate response on its own in vitro, supernatant from BMDMs cultured with A1155463 for 24 hours was analyzed. […] The non-immunogenicity of A1155463 was validated using an NF-kb reporter cell line. […] Taken together, this evidence supports that A1155463 is a non-immunogenic trained immunity inducing molecule.

[2] = tested on: BMDMs; experiment: Annexin-V staining for apoptotic cells; settings: 100 nM, 24 hours
Procedure: FIGS. 9A-9E: Representative plots for Annexin V gating strategy for apoptotic cells: BMDMs were stimulated with nothing (unstained control, FIG. 9A), PBS (negative control, FIG. 9B), Camptothecin (positive control, FIG. 9C) or A1155463 (FIG. 9D); n=3, (except camptothecin n=1). Results from plots 9B-9D depicted in FIG. 9E.
Since Bcl-xL is a known anti-apoptotic protein, a study was performed to see if inhibition with 100 nM A1155463 induced apoptosis in BMDMs. To test this, Annexin-V staining was used to gate for apoptotic cells 24 hours following stimulation with either PBS or A1155463.

[3] = tested on: BMDMs; experiment: A1155463 training with inhibitor pre-treatment (MTA, EGCG, 2-DG)
Procedure: FIGS. 5A-5F: Testing A1155463 as an inducer of trained immunity (TI) in vitro. FIG. 5A is a schematic diagram for in-vitro TI assay in bone marrow-derived macrophages (BMDMs). FIG. 5B is a graph showing interleukin-6 (IL-6) levels (expressed in picograms per milliliter (pg/ml) 24 hours (h) post PAM3-CSK4 (Pam3) challenge in an in-vitro TI assay in BMDMs trained with either phosphate buffered saline (PBS) (black) or A1155463 (pink); n=15. FIG. 5C is a graph showing tumor necrosis factor alpha (TNF-α) levels (pg/ml) 24 h post Pam3 challenge in an in-vitro TI assay in BMDMs trained with either PBS (black) or A1155463 (pink); n=10. FIG. 5D is a graph showing IL-6 levels (pg/ml) 24 h post-stimulation with PBS (black) or A1155463 (pink); n=3. FIG. 5E is a graph showing the fold change in TNF-α following Pam3 challenge in BMDMs trained with A1155463 pre-treated with PBS, MTA (histone methyl transferase inhibitor), EGCG (histone acetyltransferase inhibitor) or 2-DG (glycolysis inhibitor); n=15, significance compared with PBS control of each inhibitor. FIG. 5F is a graph of IL-6 levels (pg/ml) 24 h post Pam3 challenge in an in-vitro TI assay in BMDMs trained with either PBS (black) or A1155463 (pink) pretreated with varying concentrations of 2-DG; n=5.
After ruling out apoptosis and innate inflammation, an additional study was performed to attempt to determine the mechanism of action of A1155463-induced training in BMDMs. Training induces epigenetic and metabolic rewiring of macrophages which can be probed using small molecule inhibitors of various pathways.^16 Epigenetic changes are associated with increased histone methylation and acetylation, promoting transcription and translation of proinflammatory cytokines in response to pathogenic stimuli. Metabolic changes alter cellular metabolism, mostly favoring glycolysis, to meet the higher energy requirements of a trained cell. […]

CN(C)CC#Cc1ccc(OCCCc2sc(N3CCc4cccc(C(=O)Nc5nc6ccccc6s5)c4C3)nc2C(=O)O)c(F)c1 [A1155463, 2-(8-(benzo[d]thiazol-2-ylcarbamoyl)-3,4-dihydroisoquinolin-2(1H)-yl)-5-(3-(4-(3-(dimethyl-amino)prop-1-yn-1-yl)-2-fluorophenoxy)propyl)thiozole-4-carboxylic acid]
IL-6 levels vs PBS-treated BMDMs [1]: No significant difference | percentage of apoptotic cells [2]: No significant difference | training after epigenetic small molecule inhibitors (MTA, EGCG) ([3]; 30 min pre-treatment): no significant difference | Pam3 induced IL-6 levels with 2-DG ([3]; different concentrations of 2-DG): significant decrease | reduction in the TNF-α level following Pam3 challenge by 2DG pre-treatment ([3]; glycolysis inhibitor 2DG): 50%
